# Measured values reported in patent publication US9113629B2, “4-amino-6-(4-substituted-phenyl)-picolinates and 6-amino-2-(4-substituted-phenyl)-pyrimidine-4-carboxylates and their use as herbicides” (DOW AGROSCIENCES LLC, priority 2013, dated 2015).
# Where two headings read alike, the source gives them in different places.
# Experiments:
# [1] = tested on: Key Broadleaf Weed and Crop Species; test: Post-emergent Test II herbicidal activity (Table 5); assay type: in vivo; settings: post-emergence, 336 h, post-emergent, 14 days after application; for pest or weed control at 70 g/ha: 70 g ai/ha; for pest or weed control at 140 g/ha: 140 g ai/ha
# Summary of the method: (§1)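 Compounds, dissolved in 97:3 acetone/DMSO and diluted into an aqueous carrier containing crop oil concentrate and Triton X-155, are applied over the top of young plants at 187 L/ha. Injury is scored visually at 14 d, 0% meaning no effect and 100% complete kill.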
# [2] = tested on: Key Grass and Sedge Weeds as well as Grass Crops; test: Post-emergent Test II herbicidal activity (Table 6); assay type: in vivo; settings: post-emergence, 336 h; for pest or weed control at 70 g/ha: application rate 70 g ai/ha; for pest or weed control at 140 g/ha: application rate 140 g ai/ha
# Summary of the method: as §1
# [3] = ABUTH: velvetleaf (Abutilon theophrasti), read-out: Visual Growth Reduction (%) 14 Days After Application ABUTH
# [4] = AMARE: redroot pigweed (Amaranthus retroflexus), read-out: Visual Growth Reduction (%) 14 Days After Application AMARE
# [5] = BRSNN: oilseed-rape, canola (Brassica napus), read-out: Visual Growth Reduction (%) 14 Days After Application BRSNN
# [6] = CHEAL: lambsquarters (Chenopodium album), read-out: Visual Growth Reduction (%) 14 Days After Application CHEAL
# [7] = EPHHL: wild poinsettia (Euphorbia heterophylla), read-out: Visual Growth Reduction (%) 14 Days After Application EPHHL
# [8] = HELAN: sunflower (Helianthus annuus), read-out: Visual Growth Reduction (%) 14 Days After Application HELAN
# [9] = VIOTR: wild pansy (Viola tricolor), read-out: Visual Growth Reduction (%) 14 Days After Application VIOTR
# [10] = Triticum aestivum, TRZSS (wheat), read-out: Visual Growth Reduction (%) 14 Days After Application, TRZSS
# [11] = CYPES: yellow nutsedge (Cyperus esculentus), read-out: Visual Growth Reduction (%) 14 Days After Application, CYPES
# [12] = DIGSA: crabgrass (Digitaria sanguinalis), read-out: Visual Growth Reduction (%) 14 Days After Application, DIGSA
# [13] = ECHCG: barnyardgrass (Echinochloa crus-galli), read-out: Visual Growth Reduction (%) 14 Days After Application, ECHCG
# [14] = ORYSA: rice (Oryza sativa), read-out: Visual Growth Reduction (%) 14 Days After Application, ORYSA
# [15] = SETFA: giant foxtail (Setaria faberi), read-out: Visual Growth Reduction (%) 14 Days After Application, SETFA
# [16] = SORVU: grain sorghum (Sorghum vulgare), read-out: Visual Growth Reduction (%) 14 Days After Application, SORVU
# [17] = ZEAMX: maize, corn (Zea mays), read-out: Visual Growth Reduction (%) 14 Days After Application, ZEAMX
SMILES,"pest or weed control at 70 g/ha [1, 3] [%]","pest or weed control at 140 g/ha [1, 3] [%]","pest or weed control at 70 g/ha [1, 4] [%]","pest or weed control at 140 g/ha [1, 4] [%]","pest or weed control at 70 g/ha [1, 5] [%]","pest or weed control at 140 g/ha [1, 5] [%]","pest or weed control at 70 g/ha [1, 6] [%]","pest or weed control at 140 g/ha [1, 6] [%]","pest or weed control at 70 g/ha [1, 7] [%]","pest or weed control at 140 g/ha [1, 7] [%]","pest or weed control at 70 g/ha [1, 8] [%]","pest or weed control at 140 g/ha [1, 8] [%]","pest or weed control at 70 g/ha [1, 9] [%]","pest or weed control at 140 g/ha [1, 9] [%]","pest or weed control at 70 g/ha [2, 10] [%]","pest or weed control at 140 g/ha [2, 10] [%]","pest or weed control at 70 g/ha [2, 11] [%]","pest or weed control at 140 g/ha [2, 11] [%]","pest or weed control at 70 g/ha [2, 12] [%]","pest or weed control at 140 g/ha [2, 12] [%]",further results
"COC(=O)c1nc(-c2ccc(Br)c(F)c2)c(Cl)c(N)c1Cl [Compound 73, Methyl 4-amino-6-(4-bromo-3-fluorophenyl)-3,5-dichloropicolinate]",85 to 94,85 to 94,95 to 100,95 to 100,95 to 100,95 to 100,85 to 94,85 to 94,45 to 59,60 to 74,95 to 100,95 to 100,45 to 59,45 to 59,60 to 74,60 to 74,95 to 100,95 to 100,0 to 29,45 to 59,"pest or weed control at 70 g/ha [2, 13]: 0 to 29%; pest or weed control at 140 g/ha [2, 13]: 60 to 74%; pest or weed control at 70 g/ha [2, 14]: 0 to 29%; pest or weed control at 140 g/ha [2, 14]: 0 to 29%; pest or weed control at 70 g/ha [2, 15]: 60 to 74%; pest or weed control at 140 g/ha [2, 15]: 60 to 74%; pest or weed control at 70 g/ha [2, 16]: 85 to 94%; pest or weed control at 140 g/ha [2, 16]: 85 to 94%; pest or weed control at 70 g/ha [2, 17]: 60 to 74%; pest or weed control at 140 g/ha [2, 17]: 60 to 74%"
Nc1cc(-c2ccc(Br)cc2F)nc(C(=O)O)c1Cl [Compound 74],95 to 100,95 to 100,95 to 100,95 to 100,85 to 94,85 to 94,95 to 100,95 to 100,95 to 100,95 to 100,95 to 100,95 to 100,95 to 100,95 to 100,45 to 59,60 to 74,95 to 100,95 to 100,85 to 94,85 to 94,"pest or weed control at 70 g/ha [2, 13]: 85 to 94%; pest or weed control at 140 g/ha [2, 13]: 85 to 94%; pest or weed control at 70 g/ha [2, 14]: 0 to 29%; pest or weed control at 140 g/ha [2, 14]: 30 to 44%; pest or weed control at 70 g/ha [2, 15]: 75 to 84%; pest or weed control at 140 g/ha [2, 15]: 85 to 94%; pest or weed control at 70 g/ha [2, 16]: 85 to 94%; pest or weed control at 140 g/ha [2, 16]: 85 to 94%; pest or weed control at 70 g/ha [2, 17]: 75 to 84%; pest or weed control at 140 g/ha [2, 17]: 75 to 84%"
"Nc1cc(-c2ccc(I)c(F)c2)nc(C(=O)O)c1Cl [Compound 77, 4-amino-3-chloro-6-(3-fluoro-4-iodophenyl)picolinic acid]",85 to 94,95 to 100,95 to 100,95 to 100,75 to 84,85 to 94,95 to 100,95 to 100,95 to 100,95 to 100,85 to 94,85 to 94,0 to 29,0 to 29,45 to 59,45 to 59,0 to 29,45 to 59,75 to 84,85 to 94,"pest or weed control at 70 g/ha [2, 13]: 60 to 74%; pest or weed control at 140 g/ha [2, 13]: 60 to 74%; pest or weed control at 70 g/ha [2, 14]: 0 to 29%; pest or weed control at 140 g/ha [2, 14]: 0 to 29%; pest or weed control at 70 g/ha [2, 15]: 0 to 29%; pest or weed control at 140 g/ha [2, 15]: 0 to 29%; pest or weed control at 70 g/ha [2, 16]: 45 to 59%; pest or weed control at 140 g/ha [2, 16]: 45 to 59%; pest or weed control at 70 g/ha [2, 17]: 0 to 29%; pest or weed control at 140 g/ha [2, 17]: 0 to 29%"
"Cc1c(-c2ccc(Br)cc2)nc(C(=O)O)c(Cl)c1N [Compound 78, 4-Amino-6-(4-bromophenyl)-3-chloro-5-methylpicolinic acid]",95 to 100,95 to 100,85 to 94,95 to 100,85 to 94,95 to 100,85 to 94,85 to 94,0 to 29,0 to 29,95 to 100,95 to 100,0 to 29,0 to 29,45 to 59,45 to 59,0 to 29,95 to 100,0 to 29,0 to 29,"pest or weed control at 70 g/ha [2, 13]: 0 to 29%; pest or weed control at 140 g/ha [2, 13]: 0 to 29%; pest or weed control at 70 g/ha [2, 14]: 0 to 29%; pest or weed control at 140 g/ha [2, 14]: 0 to 29%; pest or weed control at 70 g/ha [2, 15]: 45 to 59%; pest or weed control at 140 g/ha [2, 15]: 60 to 74%; pest or weed control at 70 g/ha [2, 16]: 0 to 29%; pest or weed control at 140 g/ha [2, 16]: 0 to 29%; pest or weed control at 70 g/ha [2, 17]: 0 to 29%; pest or weed control at 140 g/ha [2, 17]: 30 to 44%"
